Laboratory results from patent US3939150A, “Penicillin derivatives” (priority 1973, dated 1976).
Entries after “also recorded” stand apart in the source; their conditions may differ. Structures can show the parent of a compound that is named as a salt.

What was measured:
[1] = tested on: Pseudomonas aeruginosa NC-5 strain; assay: Protective effect against experimentally infected mice, two oral administrations; assay type: in vivo, mice infected with Pseudomonas aeruginosa
Protocol: c. Mice (one group included five mice) were infected with Pseudomonas aeruginosa NC-5 strain via the intraperitoneal route and the test substance was orally administered twice, i. e., immediately after challenge of the test organism and after 2 hours.

[2] = cited from earlier work
male Sprague-Dawley rats [3] = assay: Acute nephrotoxicity in combination with glycerol and furocemide in rats; assay type: in vivo; details: for Serum urea nitrogen: with glycerol 4 ml/Kg of 50% and furocemide 50 mg/Kg s.c., 48 hours; for serum urea nitrogen relative to control group (in words): with glycerol and furocemide
Protocol: c. Glycerol (50%, 4 ml/kg), furocemide (50 mg/kg) and test actibiotics were injected subcutaneously in male Sprague-Dawley rats. […] Animals of each group were sacrificed 48 hours later to estimate serum urea-nitrogen values.

Klebsiella genus = details: background; cited from earlier work
male Sprague-Dawley rats [4] = assay: Nephrotoxicity after 1 week subcutaneous injection; assay type: in vivo; details: 7 days
Protocol: b. Test antibiotics were administered to male Sprague-Dawley rats by subcutaneous injection daily for 7 days. After seven days, animals were sacrificed and estimated for organ weight and serum urea-nitrogen including visual studies of kidney.

[5] = tested on: Pseudomonas aeruginosa NC-5 strain; assay: Protective effect against experimentally infected mice, one subcutaneous administration; assay type: in vivo, mice infected with Pseudomonas aeruginosa; details: s.c. once
Excerpt: a. Mice (one group included five mice) were infected with pseudomonas aeruginosa NC-5 strain the intraperitoneal route and a solution prepared by dissolving the test antibiotics in sterilized distilled water was once administered by subcutaneous injection immediately after challenge of the test organism and then the numbers of living mice were inspected. […] (The figures shown in Tables VII-IX have the same meaning).

Klebsiella 78 strain = assay: MIC distribution, clinical isolated strains; assay type: cell-based; details: of 78 strains; for number of strains with MIC 1.56: MIC 1.56 μ/ml; for number of strains with MIC 12.5: MIC 12.5 μ/ml; for number of strains with MIC 25: MIC 25 μ/ml; for number of strains with MIC 50: MIC 50 μ/ml; for number of strains with MIC 100: MIC 100 μ/ml; for number of strains with MIC 400: MIC 400 μ/ml; for number of strains with MIC >400: MIC >400 μ/ml
Excerpt: (§1) It is clear from the results shown in the above tables, as regards the antibacterial activities against clinical isolated strains, the compounds of this invention show quite high activity against not only Pseudomonas aeruginosa but also against Klebsiella as compared with carbenicillin

[6] = tested on: Proteus mirabilis 1287 strain; assay: Protective effect against experimentally infected mice, one subcutaneous administration; assay type: in vivo, mice infected with Proteus mirabilis; details: s.c. once, 2 hours after challenge
Protocol: d. Mice (one group included five mice) were infected with Proteus mirabilis 1287 strain via the intraperitoneal route and a solution prepared by dissolving the test antiobiotics in sterilized distilled water was once administered by subcutaneous injection 2 hours after of challenge of the test organism.

male dd-N mice = assay: Acute toxicity (minimum lethal dose); assay type: in vivo
Excerpt: a. The minimum lethal doses (MLD) when the compound of this invention was intravenously and subcutaneously administered to male dd-N mice are shown in Table X.

[7] = tested on: Pseudomonas aeruginosa 35 strain; assay: MIC distribution, clinical isolated strains; assay type: cell-based; details: of 35 strains; for number of strains with MIC 1.56: MIC 1.56 μ/ml; for number of strains with MIC 12.5: MIC 12.5 μ/ml; for number of strains with MIC 25: MIC 25 μ/ml; for number of strains with MIC 50: MIC 50 μ/ml; for number of strains with MIC 100: MIC 100 μ/ml; for number of strains with MIC >100: MIC >100 μ/ml
Excerpt: (Pseudomonas aeruginosa 35 strain)
as §1

[8] = tested on: Escherichia coli 31 strain; assay: MIC distribution, clinical isolated strains; assay type: cell-based; details: of 31 strains; for number of strains with MIC 1.56: MIC 1.56 μ/ml; for number of strains with MIC 12.5: MIC 12.5 μ/ml; for number of strains with MIC 25: MIC 25 μ/ml; for number of strains with MIC 50: MIC 50 μ/ml; for number of strains with MIC 100: MIC 100 μ/ml; for number of strains with MIC >100: MIC >100 μ/ml
Excerpt: (Escherichia coli 31 strain)
as §1

[9] = tested on: Pseudomonas aeruginosa NC-5 strain; assay: Protective effect against experimentally infected mice, three subcutaneous administrations; assay type: in vivo, mice infected with Pseudomonas aeruginosa; details: s.c.
Protocol: b. Mice (one group included five mice) were infected with pseudomonas aeruginosa NC-5 strain via intraperitoneal route and a solution prepared by dissolving the test substance in sterilized distilled water was administered by subcutaneous injection three times, i. e., immediately after challenge of the test organism, after 2 hours, and after 4 hours.

gram negative bacteria = details: background; cited from earlier work
[10] = Water solubility and pH of aqueous solution; assay type: physicochemical; details: 250 mg/ml in water
Protocol: As the compounds of this invention are easily soluble in water, the compound can be clinically used as an agent for parenteral administration such as an agent for intravenous injection and an agent for intramuscular injection. For example, when sodium D(-)-6-[α-(p-hydroxyphenyl)-α-(4-oxo-4H-thiopyran-3-yl-carboxanido acetamido]penicillanate is dissolved in water, the pH of the solution is about 5.8 (250 mg/ml).

Stability of di-hydrate = assay type: physicochemical
Excerpt: In addition, if the water-containing organic solvent solution keeps up its homogeneity, an organic solvent immiscible with water such as methylene chloride, chloroform, etc., may be added to the solution.

male Sprague-Dawley rats [11] = details: small dose subcutaneously; cited from earlier work

## CC1(C)S[C@@H]2[C@H](NC(=O)[C@H](N)c3ccc(O)cc3)C(=O)N2[C@H]1C(=O)O [Amoxicillin, α-amino-p-hydroxybenzylpenicillin]
[1]; 25 × 2 mg
  number of living mice / number of mice inspected: 0/5
[1]; 50 × 2 mg
  number of living mice / number of mice inspected: 0/5
[1]; 100 × 2 mg
  number of living mice / number of mice inspected: 0/5
[2]
  concentration in blood by oral administration: high concentration in blood by oral administration

## CC1(C)S[C@@H]2[C@H](NC(=O)C(C(=O)O)c3ccccc3)C(=O)N2[C@H]1C(=O)O (stereo partly drawn) [Carbenicillin, α-carboxybenzylpenicillin]
Male Sprague-Dawley rats [3]; 1000 mg/Kg s.c.
  Serum urea nitrogen: 29.7 ± 7.2 mg/dL
Male Sprague-Dawley rats [3]; rat, in vivo
  nephrotoxicity (in words): no nephrotoxicity resulted
Male Sprague-Dawley rats [3]
  serum urea nitrogen relative to control group (in words): no remarkable difference
Klebsiella genus
  activity against the Klebsiella genus (in words): weak antibacterial activity against the Klebsiella genus
Male Sprague-Dawley rats [4]; 1000 mg/Kg/day sc
  Kidney weights: 2.53 g
  Serum urea-N: 24.0 mg/dL
  renal findings: no abnormal findings
[5]; 15 mg
  number of living mice / number of mice inspected: 1/5
[5]; 30 mg
  number of living mice / number of mice inspected: 2/5
[5]; 60 mg
  number of living mice / number of mice inspected: 4/5
Klebsiella 78 strain
  number of strains with MIC 1.56: 1
  number of strains with MIC 12.5: 0
  number of strains with MIC 25: 0
  number of strains with MIC 50: 8
  number of strains with MIC 400: 16
  number of strains with MIC >400: 27
Klebsiella 78 strain; MIC 3.13 μ/ml
  number of strains with MIC […]: 1
Klebsiella 78 strain; MIC 6.25 μ/ml
  number of strains with MIC […]: 1
Klebsiella 78 strain; first column headed 100
  number of strains with MIC 100: 8
Klebsiella 78 strain; second column headed 100
  number of strains with MIC 100: 16
[6]; 1.25 mg
  number of living mice / number of mice inspected: 0/5
[6]; 2.5 mg
  number of living mice / number of mice inspected: 1/5
[6]; 5 mg
  number of living mice / number of mice inspected: 2/5
[6]; 10 mg
  number of living mice / number of mice inspected: 4/5
Male dd-N mice; i.v.
  MLD: 7000 mg/kg
Male dd-N mice; s.c.
  MLD: > 10000 mg/kg
[7]
  number of strains with MIC 1.56: 0
  number of strains with MIC 12.5: 0
  number of strains with MIC 25: 3
  number of strains with MIC 50: 4
  number of strains with MIC 100: 8
  number of strains with MIC >100: 20
[7]; MIC 3.13 μ/ml
  number of strains with MIC […]: 0
[7]; MIC 6.25 μ/ml
  number of strains with MIC […]: 0
[8]
  number of strains with MIC 1.56: 1
  number of strains with MIC 12.5: 6
  number of strains with MIC 25: 0
  number of strains with MIC 50: 0
  number of strains with MIC 100: 0
  number of strains with MIC >100: 9
[8]; MIC 3.13 μ/ml
  number of strains with MIC […]: 7
[8]; MIC 6.25 μ/ml
  number of strains with MIC […]: 8
[9]; 2.5 × 3 mg
  number of living mice / number of mice inspected: 2/5
[9]; 5 × 3 mg
  number of living mice / number of mice inspected: 0/5
[9]; 10 × 3 mg
  number of living mice / number of mice inspected: 5/5

## O=C(Cc1cccs1)N[C@@H]1C(=O)N2C(C(=O)[O-])=C(C[n+]3ccccc3)CS[C@H]12 [Cephaloridine]
Male Sprague-Dawley rats [3]; 500 mg/Kg s.c.
  Serum urea nitrogen: 50.7 ± 13.6 mg/dL
Male Sprague-Dawley rats [3]
  serum urea nitrogen relative to control group (in words): remarkable increase of serum urea nitrogen

## CC1(C)S[C@@H]2[C@H](NC(=O)[C@H](N)C3=CCC=CC3)C(=O)N2[C@H]1C(=O)O [Epicillin, 6-[D-2-amino-2-(1,4-cyclohexadien-1-yl)acetamido]penicillanic acid]
Gram negative bacteria
  activity to gram negative bacteria (in words): selective antibacterial activity to, in particular, gram negative bacteria

## CC1(C)S[C@@H]2[C@H](NC(=O)[C@H](NC(=O)c3csccc3=O)c3ccc(O)cc3)C(=O)N2[C@H]1C(=O)O [Example 3, α-(4-oxo-4H-thiopyran-3-carboxamido)-p-hydroxybenzylpenicillin sodium salt]
[1]; 25 × 2 mg
  number of living mice / number of mice inspected: 2/5
[1]; 50 × 2 mg
  number of living mice / number of mice inspected: 3/5
[1]; 100 × 2 mg
  number of living mice / number of mice inspected: 5/5
[10]
  pH of the solution: about 5.8
Male Sprague-Dawley rats [3]; 1000 mg/Kg s.c.
  Serum urea nitrogen: 23.3 ± 2.5 mg/dL
Male Sprague-Dawley rats [4]; 1000 mg/Kg/day sc
  Kidney weights: 2.30 g
  Serum urea-N: 20.3 mg/dL
[5]; 15 mg
  number of living mice / number of mice inspected: 2/5
[5]; 30 mg
  number of living mice / number of mice inspected: 3/5
[5]; 60 mg
  number of living mice / number of mice inspected: 5/5
Klebsiella 78 strain
  number of strains with MIC 1.56: 0
  number of strains with MIC 12.5: 17
  number of strains with MIC 25: 30
  number of strains with MIC 50: 1
  number of strains with MIC 400: 4
  number of strains with MIC >400: 16
Klebsiella 78 strain; MIC 3.13 μ/ml
  number of strains with MIC […]: 0
Klebsiella 78 strain; MIC 6.25 μ/ml
  number of strains with MIC […]: 2
Klebsiella 78 strain; first column headed 100
  number of strains with MIC 100: 1
Klebsiella 78 strain; second column headed 100
  number of strains with MIC 100: 7
[6]; 1.25 mg
  number of living mice / number of mice inspected: 1/5
[6]; 2.5 mg
  number of living mice / number of mice inspected: 2/5
[6]; 5 mg
  number of living mice / number of mice inspected: 4/5
[6]; 10 mg
  number of living mice / number of mice inspected: 3/5
Male dd-N mice; i.v.
  MLD: 3500 mg/kg
Male dd-N mice; s.c.
  MLD: 7000 mg/kg
[7]
  number of strains with MIC 1.56: 2
  number of strains with MIC 12.5: 6
  number of strains with MIC 25: 2
  number of strains with MIC 50: 5
  number of strains with MIC 100: 2
  number of strains with MIC >100: 7
[7]; MIC 3.13 μ/ml
  number of strains with MIC […]: 5
[7]; MIC 6.25 μ/ml
  number of strains with MIC […]: 6
[8]
  number of strains with MIC 1.56: 2
  number of strains with MIC 12.5: 9
  number of strains with MIC 25: 2
  number of strains with MIC 50: 0
  number of strains with MIC 100: 0
  number of strains with MIC >100: 9
[8]; MIC 3.13 μ/ml
  number of strains with MIC […]: 1
[8]; MIC 6.25 μ/ml
  number of strains with MIC […]: 8
[9]; 2.5 × 3 mg
  number of living mice / number of mice inspected: 5/5
[9]; 5 × 3 mg
  number of living mice / number of mice inspected: 5/5
[9]; 10 × 3 mg
  number of living mice / number of mice inspected: 5/5

## CC1(C)S[C@@H]2[C@H](NC(=O)[C@H](NC(=O)c3csccc3=O)c3ccc(O)cc3)C(=O)N2[C@H]1C(=O)O [Example 27, D(-)-6-[p-hydroxy-phenyl-α-(4-oxo-4H-thiopyran-3-ylcarboxamido)acetamido]penicillanic acid di-hydrate]
Stability of di-hydrate
  stability: pure and stable

## NC[C@H]1O[C@H](O[C@H]2[C@H](O)[C@@H](O[C@H]3O[C@H](CO)[C@@H](O)[C@H](N)[C@H]3O)[C@H](N)C[C@@H]2N)[C@H](O)[C@@H](O)[C@@H]1O [Kanamycin]
Male Sprague-Dawley rats [4]; 500 mg/kg/day sc
  Kidney weights: 3.52 g
  Serum urea-N: 70.7 mg/dL
  renal findings: renal hypertropy, ischemia of renal cortex; also recorded: abnormal increase of serum urea-nitrogen values; also recorded: severe renal impairement

## OCC(O)CO [glycerol]
Male Sprague-Dawley rats [11]
  renal impairment: mild and reversible renal impairment
